Data taken from ChEMBL document CHEMBL4680267, “Design, synthesis and biological evaluation of 7-substituted 4-phenyl-6H-imidazo[1,5-a]thieno[3,2-f] [1,4]diazepines as safe anxiolytic agents” (Eur J Med Chem, 2020).
pIC50: −log10 of the molar value.

Tests used:
[1] = Displacement of [3H]flunitrazepam from Benzodiazepine receptor in Sprague-Dawley rat cerebral cortex membrane measured after 30 mins by liquid scintillation spectrometry analysis; type: cell membranes
[2] = Displacement of [3H]-Flumazenil from Central type benzodiazepine receptor in rat cerebral cortex membrane incubated for 90 mins by liquid scintillation counting method; type: cell membranes
Mus musculus [3] = assay: Anxiolytic activity in mouse assessed as increase in time spent in lighted compartment at 10 mg/kg, po measured after 30 mins by light-dark box test (reference value: 122.3 +/- 8.5 secs); type: functional; conditions: 0.5 h
Mus musculus [4] = assay: Anticonvulsive activity in mouse assessed as protection against pentylenetetrazole-induced seizure at 30 mg/kg, po administered 30 mins prior to pentylenetetrazole challenge and measured for 30 mins; type: functional; conditions: time 60 min, 1 h
[5] = Effect on explorative activity in mouse assessed as exploration of holes at 30 mg/kg, po measured after 30 mins by hole-board test; type: ADME, organism-based; conditions: in vivo, 0.5 h
[6] = Hypnotic activity in mouse assessed as phenobarbital induced sleep endurance time at 30 mg/kg, po administered 30 mins prior to phenobarbital challenge and measured for 30 mins (reference value: 27.4 +/- 2.3 min); type: ADME, organism-based; conditions: in vivo, 1 h, time 60 min
[7] = Effect on motor coordination in mouse assessed as number of falls from rotarod at 30 mg/kg, po measured for 30 mins by rotarod test (reference value: 2.2 +/- 0.2); type: ADME, organism-based; conditions: in vivo, 0.5 h
[8] = Effect on locomotor activity in mouse at 30 mg/kg, po measured after 30 mins by hole-board test; type: ADME, organism-based; conditions: in vivo, 0.5 h
Mus musculus [9] = assay: Anti-amnesic activity in mouse model of scopolamine-induced cognitive deficit assessed as latency time to enter dark compartment in retension session at 10 mg/kg, po and measured after 24 hrs by passive avoidance test (reference value: 46.2 +/- 8.9 secs); type: functional
Mus musculus [10] = assay: Anti-amnesic activity in mouse model of scopolamine-induced cognitive deficit assessed as latency time to enter dark compartment in retension session at 30 mg/kg, po and measured after 24 hrs by passive avoidance test (reference value: 46.2 +/- 8.9 secs); type: functional
Mus musculus [11] = assay: Anti-amnesic activity in mouse model of scopolamine-induced cognitive deficit assessed as latency time to enter dark compartment in training session at 30 mg/kg, po and measured for 30 mins by passive avoidance test (reference value: 14.2 +/- 2.2 secs); type: functional; conditions: 0.5 h
Mus musculus [12] = assay: Anti-amnesic activity in mouse model of scopolamine-induced cognitive deficit assessed as latency time to enter dark compartment in training session at 10 mg/kg, po and mesured for 30 mins by passive avoidance test (reference value: 14.2 +/- 2.2 secs); type: functional; conditions: 0.5 h
Rattus norvegicus = organism: Rattus norvegicus; assay: Displacement of [3H]-Flumazenil from Central type benzodiazepine receptor in rat cerebral cortex membrane at 10 uM incubated for 90 mins by liquid scintillation counting method relative to control; type: cell membranes
[13] = Hypnotic activity in mouse assessed as phenobarbital induced sleep induction time at 30 mg/kg, po administered 30 mins prior to phenobarbital challenge and measured for 30 mins (reference value: 4.4 +/- 1.1 min); type: ADME, organism-based; conditions: in vivo, 1 h, time 60 min
Mus musculus [14] = assay: Anxiolytic activity in mouse assessed as increase in time spent in lighted compartment at 30 mg/kg, po measured after 30 mins by light-dark box test (reference value: 122.3 +/- 8.5 secs); type: functional; conditions: 0.5 h
[15] = Displacement of [3H]diazepam from Benzodiazepine receptor in rat cerebral cortex membrane; type: cell membranes
Mus musculus [16] = assay: Anticonvulsive activity in mouse assessed as protection against pentylenetetrazole-induced seizure at 10 mg/kg, po administered 30 mins prior to pentylenetetrazole challenge and measured for 30 mins; type: functional; conditions: time 60 min, 1 h
[17] = Hypnotic activity in mouse assessed as phenobarbital induced sleep endurance time at 2 mg/kg, sc administered 30 mins prior to phenobarbital challenge and measured for 30 mins (reference value: 27.4 +/- 2.3 min); type: ADME, organism-based; conditions: in vivo, 1 h, time 60 min
[18] = Displacement of [3H]flunitrazepam from Benzodiazepine receptor in Sprague-Dawley rat cerebral cortex membrane preincubated for 10 mins followed by [3H]flunitrazepam addition and measured after 60 mins by liquid scintillation spectroscopy analysis; type: cell membranes

With `Cc1nnc2n1-c1sc(Br)cc1C(c1ccccc1Cl)=NC2` [BROTIZOLAM] the pIC50 [1] was 8.59.

Work on `CC(C)(C)OC(=O)c1ncn2c1CN=C(c1cccc(F)c1)c1ccsc1-2` yielded a pIC50 [2] of 8.02, a Time (Mus musculus [3]) of 118.3 min and an Activity (Mus musculus [4]) of 0%. It also gave an Activity [5] of 17.5, a Time [6] of 25.9 min and an Activity [7] of 1.9. It also gave an Activity [8] of 29.5, a Time (Mus musculus [9]) of 51.4 s and a Time (Mus musculus [10]) of 72.5 s. The Time (Mus musculus [11]) was 15.6 s, the Time (Mus musculus [12]) was 18.2 s and the inhibition (Rattus norvegicus) was greater than 80%. For the same molecule, the Time [13] was 3.5 min and the Time (Mus musculus [14]) was 143.8 s.

`CCOC(=O)c1ncn2c1CN=C(c1ccc(F)cc1)c1ccsc1-2` showed a pIC50 [2] of 7.79, a Time (Mus musculus [3]) of 109.8 min and an Activity (Mus musculus [4]) of 0%. The Activity [5] was 15.8, the Time [6] was 29.2 min and the Activity [7] was 2.2. The Activity [8] was 34.5, the Time (Mus musculus [9]) was 55.8 s and the Time (Mus musculus [10]) was 89.2 s. It also gave a Time (Mus musculus [11]) of 14.7 s, a Time (Mus musculus [12]) of 13.9 s and an inhibition (Rattus norvegicus) greater than 80%. It also gave a Time [13] of 5.5 min and a Time (Mus musculus [14]) of 151.2 s.

In the case of `CCOC(=O)c1ncn2c1CN(C)C(=O)c1cc(F)ccc1-2` [FLUMAZENIL], the pIC50 [15] was 8.64.

`CN1C(=O)CN=C(c2ccccc2)c2cc(Cl)ccc21` [DIAZEPAM] showed a pIC50 [2] of 7.73, a Time (Mus musculus [3]) of 165.6 min and an Activity (Mus musculus [16]) of 100%.

In the case of `CC(C)(C)OC(=O)c1ncn2c1CN=C(c1ccccc1)c1ccsc1-2`, the pIC50 [2] was 8.28, the Time (Mus musculus [3]) was 113.6 min and the Activity (Mus musculus [4]) was 20%. For the same molecule, the Activity [5] was 15.9, the Time [6] was 28.8 min and the Activity [7] was 2.4. It also gave an Activity [8] of 33.4, a Time (Mus musculus [9]) of 46.9 s and a Time (Mus musculus [10]) of 70.3 s. It also gave a Time (Mus musculus [11]) of 17.2 s, a Time (Mus musculus [12]) of 15.4 s and an inhibition (Rattus norvegicus) greater than 80%. The Time [13] was 4.4 min and the Time (Mus musculus [14]) was 151.4 s.

Work on `CC(N)Cc1ccccc1` (configuration not stated) [AMPHETAMINE] yielded a Time [17] of 22.2 min.

`CCOC(=O)c1ncn2c1CN=C(c1cccc(F)c1)c1ccsc1-2` gave a pIC50 [2] of 8.06, a Time (Mus musculus [3]) of 111.3 min and an Activity (Mus musculus [4]) of 20%. It also gave an Activity [5] of 15.3, a Time [6] of 24.9 min and an Activity [7] of 2.5. The Activity [8] was 27.3, the Time (Mus musculus [9]) was 39.2 s and the Time (Mus musculus [10]) was 75.3 s. For the same molecule, the Time (Mus musculus [11]) was 17.4 s, the Time (Mus musculus [12]) was 14.9 s and the inhibition (Rattus norvegicus) was greater than 80%. For the same molecule, the Time [13] was 5.2 min and the Time (Mus musculus [14]) was 163.9 s.

In the case of `CC(C)(C)OC(=O)c1ncn2c1CN=C(c1ccc(F)cc1)c1ccsc1-2`, the pIC50 [2] was 7.99, the Time (Mus musculus [3]) was 145.6 min and the Activity (Mus musculus [4]) was 40%. For the same molecule, the Activity [5] was 17.5, the Activity (Mus musculus [16]) was 20% and the Time [6] was 27.2 min. It also gave an Activity [7] of 2.1, an Activity [8] of 26.7 and a Time (Mus musculus [9]) of 67.1 s. The Time (Mus musculus [10]) was 85.9 s, the Time (Mus musculus [11]) was 16.5 s and the Time (Mus musculus [12]) was 12.8 s. The inhibition (Rattus norvegicus) was greater than 80%, the Time [13] was 4.7 min and the Time (Mus musculus [14]) was 169.4 s.

In the case of `CCc1cc2c(s1)-n1c(C)nnc1CN=C2c1ccccc1Cl` [ETIZOLAM], the pIC50 [18] was 8.35.

With `CCOC(=O)c1ncn2c1CN=C(c1ccccc1)c1ccsc1-2` the pIC50 [2] was 7.93, the Time (Mus musculus [3]) was 131.3 min and the Activity (Mus musculus [4]) was 10%. It also gave an Activity [5] of 19.1, a Time [6] of 23.8 min and an Activity [7] of 1.9. The Activity [8] was 28.2, the Time (Mus musculus [9]) was 54.1 s and the Time (Mus musculus [10]) was 88.6 s. It also gave a Time (Mus musculus [11]) of 18.1 s, a Time (Mus musculus [12]) of 13.6 s and an inhibition (Rattus norvegicus) greater than 80%. It also gave a Time [13] of 3.9 min and a Time (Mus musculus [14]) of 166.2 s.
